Values joined by “and” are separate entries in the source; they are usually repeats but may differ in a detail not shown here. Equal entries are not always repeated. Where two headings read alike, the source gives them in different places.
Tests used:
[1] = molecular target: MtbCoaBC (Mycobacterium tuberculosis, UniProt P9WNZ1); assay: biochemical; format: biochemical; details: for activity at 0.015625 µM / activity at 0.03125 µM / activity at 0.0625 µM / activity at 0.25 µM / activity at 0.5 µM: relative to average DMSO CT; for Activity R1 / Activity R3: slope of absorbance at 360 nm vs time (s)
MtbCoaBC, sequence (P9WNZ1 whole entry): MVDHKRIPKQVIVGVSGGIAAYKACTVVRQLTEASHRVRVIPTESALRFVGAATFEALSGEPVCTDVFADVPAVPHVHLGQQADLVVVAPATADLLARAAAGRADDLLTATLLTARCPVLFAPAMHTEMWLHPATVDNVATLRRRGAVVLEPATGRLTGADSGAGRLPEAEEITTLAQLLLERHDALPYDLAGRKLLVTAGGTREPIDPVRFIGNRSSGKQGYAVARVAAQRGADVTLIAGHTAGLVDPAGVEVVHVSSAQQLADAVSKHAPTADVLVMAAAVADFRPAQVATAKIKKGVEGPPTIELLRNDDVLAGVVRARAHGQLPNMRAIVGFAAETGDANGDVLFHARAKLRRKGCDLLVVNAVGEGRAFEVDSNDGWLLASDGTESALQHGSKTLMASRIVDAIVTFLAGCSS

[2] = molecular target: human CoaB (HCoaB) (Homo sapiens, UniProt Q9HAB8); assay: EnzChek pyrophosphate assay, HCoaB; format: biochemical
human CoaB (HCoaB), sequence (Q9HAB8 whole entry): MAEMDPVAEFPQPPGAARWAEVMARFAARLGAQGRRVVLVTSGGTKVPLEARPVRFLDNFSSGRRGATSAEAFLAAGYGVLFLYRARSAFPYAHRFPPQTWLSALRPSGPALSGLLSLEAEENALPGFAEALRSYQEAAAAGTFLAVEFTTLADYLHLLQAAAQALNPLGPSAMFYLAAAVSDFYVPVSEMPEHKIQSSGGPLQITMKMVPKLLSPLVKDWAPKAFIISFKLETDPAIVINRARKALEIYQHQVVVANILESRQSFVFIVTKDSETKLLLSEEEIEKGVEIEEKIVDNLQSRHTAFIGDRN

[3] = inhibitor concentration 1 (log 0), unit not shown, three replicates
[4] = inhibitor concentration 2 (log 0.30103), unit not shown, three replicates

Q: For `O=c1cc(-c2ccc(O)c(O)c2)oc2cc(O)c(O)cc12` [compound 2b], which inhibition at 0.015625 µM ([1]; 0.015625 uM 2b, replicate R1, read-out: Inhibition % R1) is on record?
A: 8.08%

Q: And the activity at 0.015625 µM ([1]; 0.015625 uM 2b, replicate R1, read-out: Activity % R1)?
A: 91.9%

Q: And the “Activity R1” value ([1]; 0.015625 uM 2b, replicate R1)?
A: 0.0001714

Q: What about the inhibition at 0.015625 µM ([1]; 0.015625 uM 2b, replicate R2, read-out: Inhibition % R2) of the same compound?
A: 5.01%

Q: What about the activity at 0.015625 µM ([1]; 0.015625 uM 2b, replicate R2, read-out: Activity % R2) of the same compound?
A: 95%

Q: And the inhibition at 0.015625 µM ([1]; 0.015625 uM 2b, replicate R3, read-out: Inhibition % R3)?
A: 10.3%

Q: And the activity at 0.015625 µM ([1]; 0.015625 uM 2b, replicate R3, read-out: Activity % R3)?
A: 89.7%

Q: And the “Activity R3” value ([1]; 0.015625 uM 2b, replicate R3)?
A: 0.0001672

Q: What about the inhibition at 0.03125 µM ([1]; 0.03125 uM 2b, replicate R1, read-out: Inhibition % R1) of the same compound?
A: 20.2%

Q: And the activity at 0.03125 µM ([1]; 0.03125 uM 2b, replicate R1, read-out: Activity % R1)?
A: 79.8%

Q: What about the “Activity R1” value ([1]; 0.03125 uM 2b, replicate R1) of the same compound?
A: 0.0001487

Q: What about the inhibition at 0.03125 µM ([1]; 0.03125 uM 2b, replicate R2, read-out: Inhibition % R2) of the same compound?
A: 19.2%

Q: What about the activity at 0.03125 µM ([1]; 0.03125 uM 2b, replicate R2, read-out: Activity % R2) of the same compound?
A: 80.8%

Q: What about the inhibition at 0.03125 µM ([1]; 0.03125 uM 2b, replicate R3, read-out: Inhibition % R3) of the same compound?
A: 19.4%

Q: And the activity at 0.03125 µM ([1]; 0.03125 uM 2b, replicate R3, read-out: Activity % R3)?
A: 80.6%

Q: And the “Activity R3” value ([1]; 0.03125 uM 2b, replicate R3)?
A: 0.0001503

Q: What about the inhibition at 0.0625 µM ([1]; 0.0625 uM 2b, replicate R1, read-out: Inhibition % R1) of the same compound?
A: 37.9%

Q: What about the activity at 0.0625 µM ([1]; 0.0625 uM 2b, replicate R1, read-out: Activity % R1) of the same compound?
A: 62.1%

Q: What about the “Activity R1” value ([1]; 0.0625 uM 2b, replicate R1) of the same compound?
A: 0.0001157

Q: And the inhibition at 0.0625 µM ([1]; 0.0625 uM 2b, replicate R2, read-out: Inhibition % R2)?
A: 38.9%

Q: And the activity at 0.0625 µM ([1]; 0.0625 uM 2b, replicate R2, read-out: Activity % R2)?
A: 61.2%

Q: What about the inhibition at 0.0625 µM ([1]; 0.0625 uM 2b, replicate R3, read-out: Inhibition % R3) of the same compound?
A: 38%

Q: And the activity at 0.0625 µM ([1]; 0.0625 uM 2b, replicate R3, read-out: Activity % R3)?
A: 62%

Q: And the “Activity R3” value ([1]; 0.0625 uM 2b, replicate R3)?
A: 0.0001157

Q: What about the inhibition at 0.25 µM ([1]; 0.25 uM 2b, replicate R1, read-out: Inhibition % R1) of the same compound?
A: 95%

Q: What about the activity at 0.25 µM ([1]; 0.25 uM 2b, replicate R1, read-out: Activity % R1) of the same compound?
A: 4.96%

Q: What about the “Activity R1” value ([1]; 0.25 uM 2b, replicate R1) of the same compound?
A: 0.000009249

Q: And the activity at 0.25 µM ([1]; 0.25 uM 2b, replicate R2, read-out: Activity % R2)?
A: 4.35%

Q: What about the inhibition at 0.25 µM ([1]; 0.25 uM 2b, replicate R3, read-out: Inhibition % R3) of the same compound?
A: 95.6%

Q: What about the activity at 0.25 µM ([1]; 0.25 uM 2b, replicate R3, read-out: Activity % R3) of the same compound?
A: 4.39%

Q: What about the “Activity R3” value ([1]; 0.25 uM 2b, replicate R3) of the same compound?
A: 0.000008176

Q: And the inhibition at 0.5 µM ([1]; 0.5 uM 2b, replicate R1, read-out: Inhibition % R1)?
A: 97.8%

Q: And the activity at 0.5 µM ([1]; 0.5 uM 2b, replicate R1, read-out: Activity % R1)?
A: 2.19%

Q: And the “Activity R1” value ([1]; 0.5 uM 2b, replicate R1)?
A: 0.000004090

Q: What about the inhibition at 0.5 µM ([1]; 0.5 uM 2b, replicate R2, read-out: Inhibition % R2) of the same compound?
A: 99%

Q: What about the activity at 0.5 µM ([1]; 0.5 uM 2b, replicate R2, read-out: Activity % R2) of the same compound?
A: 1%

Q: And the inhibition at 0.5 µM ([1]; 0.5 uM 2b, replicate R3, read-out: Inhibition % R3)?
A: 97%

Q: And the activity at 0.5 µM ([1]; 0.5 uM 2b, replicate R3, read-out: Activity % R3)?
A: 3%

Q: What about the “Activity R3” value ([1]; 0.5 uM 2b, replicate R3) of the same compound?
A: 0.000005588

Q: And the “inhibition, IC50 MtbCoaBC 2b” value [1, 3]?
A: 99.01

Q: And the “reaction rate (slope of absorbance at 360 nm vs time), IC50 MtbCoaBC 2b” value [1, 3]?
A: 0.000001846 and 0.000001860 and -0.000003443

Q: What about the “remaining activity relative to control, IC50 MtbCoaBC 2b” value [1, 3] of the same compound?
A: 0.9903 and 0.9976 and -1.847

Q: What about the “reaction rate (slope of absorbance at 360 nm vs time), IC50 MtbCoaBC 2b” value [1, 4] of the same compound?
A: -0.000001738 and -0.000001919 and -0.000000593

Q: What about the “remaining activity relative to control, IC50 MtbCoaBC 2b” value [1, 4] of the same compound?
A: -0.932 and -1.029 and -0.318

Q: What about the IC50 ([1]; read-out: IC50 EnzChek MtbCoaBC) of the same compound?
A: 80 ± 10 nM

Q: And the inhibition at 0.25 µM ([1]; read-out: Inhibition % R2)?
A: 95.7%

Q: What about the IC50 ([2]; 1 µM enzyme, average of three independent experiments ± SD) of the same compound?
A: 60 ± 7 µM

Q: And the activity at 3.125 µM ([2]; 3.125 uM compound, HCoaB, relative to average DMSO CT, replicates R1-R3)?
A: 96.1%

Q: What about the Activity % ([2]; 3.125 uM compound, HCoaB, relative to average DMSO CT, replicates R1-R3, 3.125 µM) of the same compound?
A: 99.35% and 93.21%

Q: And the Inhibition % ([2]; 3.125 uM compound, HCoaB, replicates R1-R3, 3.125 µM)?
A: 0.65% and 6.79% and 3.88%

Q: What about the activity at 6.25 µM ([2]; 6.25 uM compound, HCoaB, relative to average DMSO CT, replicates R1-R3) of the same compound?
A: 97.4%

Q: What about the Activity % ([2]; 6.25 uM compound, HCoaB, relative to average DMSO CT, replicates R1-R3, 6.25 µM) of the same compound?
A: 94.68% and 99.68%

Q: And the Inhibition % ([2]; 6.25 uM compound, HCoaB, replicates R1-R3, 6.25 µM)?
A: 5.32% and 0.32% and 2.58%

Q: What about the activity at 25 µM ([2]; 25 uM compound, HCoaB, relative to average DMSO CT, replicates R1-R3) of the same compound?
A: 66.3%

Q: What about the Activity % ([2]; 25 uM compound, HCoaB, relative to average DMSO CT, replicates R1-R3, 25 µM) of the same compound?
A: 70.2% and 69.67%

Q: What about the inhibition at 25 µM ([2]; 25 uM compound, HCoaB, replicates R1-R3) of the same compound?
A: 29.8%

Q: What about the Inhibition % ([2]; 25 uM compound, HCoaB, replicates R1-R3, 25 µM) of the same compound?
A: 30.33% and 33.67%

— article PMC7794376 (Nature Communications, 2021)
